# Read-outs that look alike come from different tables or passages of the source.
# Assays:
# Format in all cases: cell-based
# [1] = system: MCF-7; assay: CellTiterGlo viability assay, initial screening; conditions: Homo sapiens, read-out: IC50 (relative IC50)
# Method: (§1) In vitro viability assays were performed to assess the effects of compounds on cell viability in 7 selected cell lines over 72 hr using the CellTiterGlo (CTG, Promega-G7573) assay. The tests were performed in duplicates with treatment of compounds at 9 points, 3.16 folds titration in 96 well plates over ˜72 hr. The compound starting concentrations were […]. Cell viability assay using CellTiterGlo in 96-well plate were performed. The compound treatment was 72 hrs, under standard growth conditions, and in duplicate. Compounds were dissolved to 40 mM with thawed […]. Compounds were serially diluted at 3.16 fold in thawed DMSO, and warmed to 37° C. before being dissolved in media (2 μl+200 μl). After compounds were dissolved in media (media was also warmed to 37° C.). Media containing compounds were warmed to 37° C. in incubator and then compounds in media were added to cell plates (50 μl+50 μl), in duplicates. The compounds final concentrations were from […] to 19.9 nM. All compound solubilities were checked and recorded again, then the plates were transferred to CO2 tissue culture incubator immediately and incubated for 3 days. DMSO final concentration is 0.5%.
# [2] = system: MOLT-4; assay: CellTiterGlo viability assay, initial screening; conditions: Homo sapiens, read-out: IC50 (relative IC50)
# Method: as §1
# [3] = system: K562; assay: CellTiterGlo viability assay, initial screening; conditions: Homo sapiens, read-out: IC50 (relative IC50)
# Method: as §1
# [4] = system: KG-1; assay: CellTiterGlo viability assay, initial screening; conditions: Homo sapiens, read-out: IC50 (relative IC50)
# Method: as §1
# [5] = system: HL-60; assay: CellTiterGlo viability assay, initial screening; conditions: Homo sapiens, read-out: IC50 (relative IC50)
# Method: as §1
# [6] = system: HepG2; assay: CellTiterGlo viability assay, initial screening; conditions: Homo sapiens, read-out: IC50 (relative IC50)
# Method: as §1
# [7] = system: CCRF-CEM; assay: CellTiterGlo viability assay, initial screening; conditions: Homo sapiens, read-out: IC50 (relative IC50)
# Method: as §1
# [8] = system: HT29; assay: Solid tumour and haematological malignancy assay (CellTiterGlo); conditions: Homo sapiens; for IC50: read-out: IC50 (absolute IC50); for Emax: read-out: MI %
# Method: (§2) In vitro viability assay were performed to assess the effects of compounds on cell viability in selected cell lines over 72 hr using the CellTiterGlo (CTG, Promega-G7573) assay. […] Cell viability assay using CellTiterGlo in 96-well plate were performed. Compound treatment 72 hrs, standard growth conditions, duplicates. Compounds were dissolved to 40 mM with thawed 100%. […] After compounds were dissolved in media, media containing compounds were warmed to 37° C. in incubator and then compounds in media were added to cell plates ([…]) in duplicates. […] All compound solubilities were checked and recorded again, then the plates were transferred to CO2 tissue culture incubator immediately and incubated for 3 days. DMSO final concentration is 0.5%.
# [9] = system: K562; assay: as above; conditions: Homo sapiens; for IC50: read-out: IC50 (absolute IC50); for Emax: read-out: MI %
# Method: as §2
# [10] = system: KG-1; assay: as above; conditions: Homo sapiens; for IC50: read-out: IC50 (absolute IC50); for Emax: read-out: MI %
# Method: as §2
# [11] = system: MCF7; assay: as above; conditions: Homo sapiens; for IC50: read-out: IC50 (absolute IC50); for Emax: read-out: MI %
# Method: as §2
# [12] = system: CCRFCEM; assay: as above; conditions: Homo sapiens, CCRF-CEM; for IC50: read-out: IC50 (absolute IC50); for Emax: read-out: MI %
# Method: as §2
# [13] = system: MOLT-4; assay: as above; conditions: Homo sapiens; for IC50: read-out: IC50 (absolute IC50); for Emax: read-out: MI %
# Method: (§3) In vitro viability assay were performed to assess the effects of compounds on cell viability in selected cell lines over 72 hr using the CellTiterGlo (CTG, Promega-G7573) assay. The tests were performed in duplicates with treatment of compounds at 9 points, 3.16 folds titration in 96 well plates over ˜72 hr. The compound starting concentrations were […]. Cell viability assay using CellTiterGlo in 96-well plate were performed. Compound treatment 72 hrs, standard growth conditions, duplicates. Compounds were dissolved to 40 mM with thawed […]. Compounds were serially diluted at 3.16 fold in thawed DMSO, and warmed to 37° C. before being dissolved in media ([…]). After compounds were dissolved in media, media containing compounds were warmed to 37° C. in incubator and then compounds in media were added to cell plates ([…]) in duplicates. The compounds' final concentrations were from […] to 19.9 nM. All compound solubilities were checked and recorded again, then the plates were transferred to CO2 tissue culture incubator immediately and incubated for 3 days. DMSO final concentration is 0.5%.
# [14] = system: NCI-H929; assay: as above; conditions: Homo sapiens; for IC50: read-out: IC50 (absolute IC50); for Emax: read-out: MI %
# Method: as §3
# [15] = system: RL; assay: as above; conditions: Homo sapiens; for IC50: read-out: IC50 (absolute IC50); for Emax: read-out: MI %
# Method: as §3
SMILES,"IC50 ([1]; MCF7, 72 h)","IC50 ([2]; MOLT-4, 72 h)","IC50 ([3]; K562, 72 h)","IC50 ([4]; KG-1, 72 h)","IC50 ([5]; HL-60, 72 h)","IC50 ([6]; HepG2, 72 h)",IC50 ([7]; 72 h),"IC50 ([8]; HT-29, 72 h)","IC50 ([9]; K562, 72 h)","IC50 ([10]; KG-1, 72 h)","IC50 ([11]; MCF7, 72 h)",IC50 ([12]; 72 h),"IC50 ([13]; MOLT-4, 72 h)","IC50 ([14]; NCI-H929, 72 h)",IC50 ([15]; 72 h),other results
"C[C@H](NP(=O)(OC[C@@H]1C[C@@H](OP(=O)(N[C@@H](C)C(=O)OCc2ccccc2)Oc2ccccc2)[C@H](n2cnc3c(N)ncnc32)O1)Oc1ccccc1)C(=O)OCc1ccccc1 (stereo partly drawn) [H, Benzyl 2-(((((2S,4R,5R)-5-(6-amino-9H-purin-9-yl)-4-((((1-(benzyloxy)-1-oxopropan-2-yl)amino)(phenoxy)phosphoryl)oxy)tetrahydrofuran-2-yl)methoxy)(phenoxy)phosphoryl)-amino)propanoate]",0.1 to 5 µM,15 to 100 µM,15 to 100 µM,15 to 100 µM,15 to 100 µM,5 to 15 µM,15 to 100 µM,,,,,,,,,
"C[C@H](NP(=O)(Oc1cccc2ccccc12)O[C@@H]1C[C@@H](CO)O[C@H]1n1cnc2c(N)ncnc21)C(=O)OCc1ccccc1 (stereo partly drawn) [Compound I, (2S)-benzyl 2-(((((2R,3R,5S)-2-(6-amino-9H-purin-9-yl)-5-(hydroxymethyl)tetrahydro-furan-3-yl)oxy)(naphthalen-1-yloxy)phosphoryl)amino)propanoate]",5 to 15 µM,15 to 100 µM,15 to 100 µM,15 to 100 µM,15 to 100 µM,15 to 100 µM,15 to 100 µM,,,,,,,,,
CCCCCOC(=O)[C@H](CC(C)C)NP(=O)(OC[C@@H]1C[C@H](O)[C@H](n2cnc3c(N)nc(OC)nc32)O1)Oc1cccc2ccccc12 (stereo partly drawn) [Compound M],,,,,,,,15 to 100 µM,5 to 15 µM,15 to 100 µM,15 to 100 µM,5 to 15 µM,5 to 15 µM,5 to 15 µM,5 to 15 µM,"Emax ([8]; HT-29, 72 h): 100%; Emax ([9]; K562, 72 h): 100%; Emax ([10]; KG-1, 72 h): 102%; Emax ([11]; MCF7, 72 h): 100%; Emax ([12]; 72 h): 100%; Emax ([13]; MOLT-4, 72 h): 101%; Emax ([14]; NCI-H929, 72 h): 99%; Emax ([15]; 72 h): 100%"
"COc1nc(N)c2ncn([C@@H]3O[C@H](CO)C[C@H]3O)c2n1 [2-OMe-Cordycepin, 3′-deoxy-2-methoxyadenosine, reference compound]",,,,,,,,,,,,,,,,"IC50 ([8]; HT-29, HT29, 72 hr): > 100 µM; Emax ([8]; HT-29, HT29, 72 hr): 19%; IC50 ([9]; K562, 72 hr): > 100 µM; Emax ([9]; K562, 72 hr): 40%; IC50 ([10]; KG-1, 72 hr): > 100 µM; Emax ([10]; KG-1, 72 hr): 1%; IC50 ([11]; MCF7, 72 hr): > 100 µM; Emax ([11]; MCF7, 72 hr): 8%; IC50 ([12]; CCRFCEM, 72 hr): > 100 µM; Emax ([12]; CCRFCEM, 72 hr): -4%; IC50 ([13]; MOLT-4, 72 hr): > 100 µM; Emax ([13]; MOLT-4, 72 hr): 1%; IC50 ([14]; NCI-H929, 72 hr): > 100 µM; Emax ([14]; NCI-H929, 72 hr): 51%; IC50 ([15]; 72 hr): > 100 µM; Emax ([15]; 72 hr): 0%"
"CCCCCCOC(=O)[C@H](C)NP(=O)(OC[C@@H]1C[C@H](O)[C@H](n2cnc3c(N)nc(OC)nc32)O1)Oc1ccccc1 (stereo partly drawn) [Compound N, 2-O-methyl-3′-deoxyadenosine-5′-O-[phenyl(1-hexyloxy-L-alaninyl)] phosphate]",,,,,,,,15 to 100 µM,15 to 100 µM,15 to 100 µM,15 to 100 µM,15 to 100 µM,15 to 100 µM,15 to 100 µM,15 to 100 µM,"Emax ([8]; HT-29, 72 h): 69%; Emax ([9]; K562, 72 h): 78%; Emax ([10]; KG-1, 72 h): 96%; Emax ([11]; MCF7, 72 h): 73%; Emax ([12]; 72 h): 93%; Emax ([13]; MOLT-4, 72 h): 97%; Emax ([14]; NCI-H929, 72 h): 99%; Emax ([15]; 72 h): 88%"
COc1nc(N)c2ncn([C@@H]3O[C@H](COP(=O)(N[C@@H](C)C(=O)OCc4ccccc4)Oc4cccc5ccccc45)C[C@H]3O)c2n1 (stereo partly drawn) [K],,,,,,,,15 to 100 µM,15 to 100 µM,15 to 100 µM,5 to 15 µM,5 to 15 µM,15 to 100 µM,5 to 15 µM,15 to 100 µM,
"C[C@H](NP(=O)(N[C@@H](C)C(=O)OCc1ccccc1)OC[C@@H]1CC(O)[C@H](n2cnc3c(N)ncnc32)O1)C(=O)OCc1ccccc1 (stereo in doubt) [Compound J, Benzyl 2-[({[5-(6-amino-9H-purin-9-yl)-4-hydroxyoxolan-2-yl]methoxy}({[1-(benzyloxy)-1-oxopropan-2-yl]amino})phosphoryl)amino]propanoate]",,,,,,,,,,,,,,,,"IC50 ([1]; MCF7, MCF-7, 72 hr): 15 to 100 µM; IC50 ([2]; MOLT-4, 72 hr): 0.1 to 5 µM; IC50 ([3]; K562, 72 hr): 15 to 100 µM; IC50 ([4]; KG-1, 72 hr): 15 to 100 µM; IC50 ([5]; HL-60, 72 hr): 15 to 100 µM; IC50 ([6]; HepG2, 72 hr): 15 to 100 µM; IC50 ([7]; 72 hr): 15 to 100 µM"
"C[C@H](NP(=O)(Oc1ccccc1)O[C@@H]1C[C@@H](CO)O[C@H]1n1cnc2c(N)ncnc21)C(=O)OCc1ccccc1 (stereo partly drawn) [G, (2S)-benzyl 2-(((((2R,3R,5S)-2-(6-amino-9H-purin-9-yl)-5-(hydroxymethyl)tetrahydro-furan-3-yl)oxy)(phenoxy)phosphoryl)amino)propanoate]",5 to 15 µM,15 to 100 µM,15 to 100 µM,15 to 100 µM,15 to 100 µM,15 to 100 µM,15 to 100 µM,,,,,,,,,
